In PMC6010102, “N-thioalkylcarbazoles derivatives as new anti-proliferative agents: synthesis, characterisation and molecular mechanism evaluation” (Journal of Enzyme Inhibition and Medicinal Chemistry, 2018):

What was measured:
Parp-1 = Parp-1 cleavage immunoblot in HeLa cells; type: cell-based, human; conditions: 10 µM, 24, 48 and 72 h, western blot
Experimental: Cells were serum deprived for 24 h, treated for 24, 48 and 72 h with the compound to be tested. At the end, cells were rinsed twice with ice cold PBS and immediately lysed in lysis buffer (50 mM Tris-HCl, pH 7, 5–8; 150 mM NaCl, 1% Igepal CA-630; 0.1% SDS; 0.5% sodium deoxycholate) containing 1% sodium orthovanadate and 1% phenylmethylsulphonyl fluoride (PMSF). Cell lysates were cleared by centrifugation at 14,000 g for 10 min at 4 °C. Protein concentrations were determined using the Bradford protein assay[40] (Bio-Rad Laboratories, Milan, Italy) according to the directions from the manufacturer. Equal amounts of cell extracts (about 20 µg) were resolved under denaturing conditions by electrophoresis in 10% polyacrylamide gels containing SDS (SDS-PAGE) and transferred to nitrocellulose membranes by electroblotting (GE Healthcare, Piscataway, NJ). […] After incubation with the appropriate secondary antibody (VWR International PBI, MI, Italy) for 1 h at room temperature, the proteins of interest were detected on the membranes by using enhanced chemiluminescence (Amersham ECL Prime Western Blotting Detection Reagent, GE Healthcare, Piscataway, NJ).

[1] = test system: 3T3-L1 murine fibroblasts; assay: MTT cell viability, 3T3-L1; type: cell-based; conditions: Mus musculus, non-tumoural cells, 72 h exposure, mean ± SD, read-out: Antiproliferative activity IC50, 3T3-L1
Excerpt: (§1) The six cell lines used in this work were purchased from American Type Culture Collection (ATCC, Manassas, VA). MCF-7 human breast cancer cells, oestrogen receptor (ER) positives, were maintained in Dulbecco’s Modified Eagle’s Medium/Nutrient Mixture F-12 Ham (DMEM/F12), supplemented with 5% foetal bovine serum (FBS) and 100 U/ml penicillin/streptomycin, as previously described. MDA-MB-231, human breast cancer cells, oestrogen receptor (ER) negative, were maintained in Dulbecco’s Modified Eagle’s Medium/Nutrient Mixture F-12 Ham (DMEM/F12), supplemented with 5% Newborn Calf Serum (NCS) and 100 U/ml penicillin/streptomycin. HeLa human epithelial cervix carcinoma cells, oestrogen receptor (ER) negative, and ISHIKAWA human endometrial adenocarcinoma cell, oestrogen receptor positive, were maintained in minimum essential medium (MEM), supplemented with 10% FBS, 100 U/ml penicillin/streptomycin and 1% non-essential amino acid. 3T3-L1 cells line of murine fibroblasts of embryonic type, were maintained in DMEM, supplemented with 10% NCS and 100 U/ml penicillin/streptomycin. MCF-10A human mammary epithelial cells were cultured in DMEM/F12 medium, supplemented with 5% horse serum (HS) (Eurobio, Les Ullis, Cedex, France), 100 U/ml penicillin/streptomycin, […] hydrocortisone, 20 ng/ml hEGF (human epidermal growth factor), 10 μg/ml insulin and […] cholera enterotoxin (Sigma-Aldrich, Milano, Italy). Cells were maintained at 37 °C in a humidified atmosphere of 95% air and 5% CO2 and periodically screened for contamination.
(§2) MDA-MB-231, MCF-7, HeLa and ISHIKAWA cells were grown in complete medium and, before being treated, they were serum deprived for 24 h, to allow cell cycle synchronisation. Then cells were grown in phenol red-free medium supplemented with 1% DCC (destran-coated charcoal treated) FBS, then treated with increasing concentrations (0.1, 1, 10, 20, 40, 100 µM) of each compound for 72 h. Compounds were dissolved in dimethylsulphoxide (DMSO) (Sigma, St. Louis, MO) and diluted in each cell medium. Untreated cells, used as a control, were added with DMSO alone (final concentration 0.1%). Cell viability was assessed using the 3-[4,5-dimethylthiazol-2-yl]-2,5-diphenyltetrazolium bromide reagent (MTT), according to the protocol from manufacturer (Sigma-Aldrich, Milan, Italy), as previously described[37] ^, [38]. For each sample, the mean absorbance, measured at 570 nm, was expressed as a percentage of the control and plotted versus drug concentration to determine for each cell line the IC50 values (namely, drugs concentrations able to reduce cell viability of 50% with respect to the control), using GraphPad Prism 5 Software (GraphPad Inc., San Diego, CA)[39]. Each experiment was carried out in quadruplicate. Standard deviations (SD) were shown.

[2] = test system: MDA-MB-231 human breast cancer cells; assay: MTT cell viability, MDA-MB-231; type: cell-based; conditions: 72 h exposure, mean ± SD, read-out: Antiproliferative activity IC50, MDA-MB-231
Excerpt: as §1, §2

caspase-8 = assay: Caspase-Glo assay, caspase-8; type: cell-based, human; conditions: HeLa cells, concentration equal to IC50, 24 h
Experimental: Caspases-3/7, -8 and -9 activities were measured with the Caspase-Glo Assay, according to the guidelines of manufacturer (Caspase-Glo® 3/7, 8 and 9 Assay Systems, Promega Corporation, Madison, WI) as described in Iacopetta et al.[43].

HeLa cells = assay: TUNEL assay in HeLa cells; type: cell-based, human; conditions: concentration equal to IC50, 24 h
Experimental: Apoptosis was detected by the TUNEL assay, according to the guidelines of the manufacturer (CF™488A TUNEL Assay Apoptosis Detection Kit, Biotium, Hayward, CA)[8]. Briefly, cells were grown on glass coverslips and, after treatment, they were washed trice with PBS, then methanol-fixed at −20 °C for 15 min. Fixed cells were washed trice with 0.01% (V/V) Triton X-100 in PBS and incubated with 100 µL of TUNEL equilibration buffer for 5 min. After its removal, 50 µL of TUNEL reaction mixture containing 1 µL of terminal deoxynucleotidyl transferase (TdT) were added to each sample and incubated in a dark and humidified chamber for 2 h at 37 °C. Samples were washed trice with ice-cold phosphate-buffered saline (PBS) containing 0.1% Triton X-100 and 5 mg/mL bovine serum albumin (BSA). 2-(4-Amidinophenyl)-6-indolecarbamidine dihydrochloride (DAPI) (0.2 µg/mL) counterstain was performed (10 min, 37 °C, dark and humidified conditions). After three additional washes with cold PBS, one drop of mounting solution was added, then they were observed and imaged under a fluorescence microscope (Leica DM 6000, Leica, Frankfurt am Main, Germany) (20× magnification) with excitation/emission wavelength maxima of 490 nm/515 nm (CF^TM488A) or 350 nm/460 nm (DAPI). Representative fields were shown. The experiments were repeated three times.

IC50 [2]: 27.2 ± 0.75 µM | caspase-8 activity (caspase-8): no increase of caspase-8 activity
SMILES: Cc1ccc(C)c2c1c1cc(Br)ccc1n2CCCCCCCS [5c, 7-(6-Bromo-1,4-dimethyl-9H-carbazol-9-yl)-heptane-1-thiol]
Parp-1 cleavage (about 89 KDa form) (Parp-1): presence of the cleaved form of Parp-1 | IC50 [1]: > 100 µM | apoptosis / DNA damage (TUNEL) (HeLa cells): induced DNA damage and led to cell death triggering the apoptotic mechanism
